Nc1ccc(Cl)nn1
Settings	solubility (mole fraction)
in DMF, 298.45 K	0.0353
in DMF, 303.35 K	0.0401
in DMF, 308.15 K	0.0455
in DMF, 313.35 K	0.0522
in DMF, 318.15 K	0.0592
in DMF, 323.25 K	0.0647
in DMF, 328.35 K	0.0705
in DMF, 333.45 K	0.0768
in DMF, 337.95 K	0.083
in DMF, 343.05 K	0.0904
in acetone, 298.15 K	0.00338
in acetone, 303.15 K	0.00423
in acetone, 308.15 K	0.00513
in acetone, 313.25 K	0.00597
in acetone, 318.15 K	0.00682
in acetone, 323.15 K	0.00791
in acetone, 328.15 K	0.00871
in cyclohexanone, 298.25 K	0.00455
in cyclohexanone, 303.25 K	0.0053
in cyclohexanone, 308.15 K	0.00643
in cyclohexanone, 313.15 K	0.00782
in cyclohexanone, 318.25 K	0.00889
in cyclohexanone, 323.05 K	0.0107
in cyclohexanone, 328.15 K	0.0125
in cyclohexanone, 333.15 K	0.015
in cyclohexanone, 338.25 K	0.0174
in cyclohexanone, 343.15 K	0.02
in ethanol, 298.15 K	0.00206
in ethanol, 303.25 K	0.00271
in ethanol, 308.15 K	0.00318
in ethanol, 313.15 K	0.00405
in ethanol, 318.15 K	0.005
in ethanol, 323.15 K	0.006
in ethanol, 328.15 K	0.00702
in ethanol, 333.15 K	0.00848
in ethanol, 338.15 K	0.00994
in ethanol, 342.85 K	0.0113
in ethyl acetate, 298.45 K	0.00133
in ethyl acetate, 303.35 K	0.00166
in ethyl acetate, 308.15 K	0.00194
in ethyl acetate, 313.15 K	0.00227
in ethyl acetate, 318.25 K	0.00263
in ethyl acetate, 323.25 K	0.00319
in ethyl acetate, 328.15 K	0.00358
in ethyl acetate, 333.15 K	0.00413
in ethyl acetate, 338.35 K	0.00479
in ethyl acetate, 343.15 K	0.0053
in methanol, 298.15 K	0.00388
in methanol, 303.35 K	0.00444
in methanol, 308.05 K	0.00525
in methanol, 313.15 K	0.00605
in methanol, 318.15 K	0.00721
in methanol, 322.95 K	0.00824
in methanol, 328.55 K	0.00936
in methanol, 332.45 K	0.0107
in n-butanol, 296.55 K	0.00171
in n-butanol, 302.95 K	0.00224
in n-butanol, 309.85 K	0.00315
in n-butanol, 313.05 K	0.00357
in n-butanol, 318.25 K	0.00428
in n-butanol, 322.95 K	0.00498
in n-butanol, 328.15 K	0.00629
in n-butanol, 333.45 K	0.00741
in n-butanol, 338.35 K	0.00871
in n-butanol, 343.15 K	0.0102
in toluene, 298.15 K	5.02e-05
in toluene, 303.25 K	6.73e-05
in toluene, 308.15 K	8.17e-05
in toluene, 313.35 K	0.000116
in toluene, 318.15 K	0.000155
in toluene, 323.25 K	0.000202
in toluene, 328.35 K	0.00025
in toluene, 333.15 K	0.000293
in toluene, 338.35 K	0.000352
in toluene, 343.55 K	0.000454

Reference: BigSolDB 2.1
